Earlier results on three molecules are cited in article PMC12207880 (The Oncologist, 2025).

One data set concerns advanced solid tumors. Also noted: method as in earlier work.
The conditions of data set [1]: 200 mg BID.
In data set [2] the test system is patients treated with abemaciclib alone.
Data set [3] relates to patients treated with endocrine therapy combined with palbociclib.
The mark [4] stands for this setting: sample size 33 (escalation phase), U.S.A.
Setting [5] is: sample size 132, U.S.A, France, Netherland.

Where two headings read alike, the source gives them in different places.

`CCN1CCN(Cc2ccc(Nc3ncc(F)c(-c4cc(F)c5nc(C)n(C(C)C)c5c4)n3)nc2)CC1` [Abemaciclib, abemaciclib]: the “Overall DCR” value with advanced solid tumors (sample size 25, China) was 68.0%; in the data set with advanced solid tumors (setting [4]) it was 48.5%. Besides, the “Overall ORR” value is given as 8.0% in the data set with advanced solid tumors (sample size 25, China) and 0% with advanced solid tumors (setting [4]). For the same molecule, the Ctrough is 210 (89%, n=5) ng/mL in data set [1] (n=5) and 197 (82%, n=52) ng/mL in data set [1] (n=52). Also, in data set [2], the “hypokalaemia of grade 3” value is 2 patients. Besides, the “hypokalaemia of all grades” value in data set [2] (34 of 130 patients) is on record as 26.2%.
For `CC(=O)c1c(C)c2cnc(Nc3ccc(N4CCNCC4)cn3)nc2n(C2CCCC2)c1=O` [Palbociclib, palbociclib], the “grade 4 increased GGT” value in data set [3] (1 of 135 patients) was 0.7%. In addition, the “grade 3 increased GGT” value in data set [3] (3 of 135 patients) was 2.2%. The “overall incidence of increased GGT” value in data set [3] (135 patients) is 4.4%. Further, in the data set with advanced solid tumors (sample size 37, U.S.A), the “Overall DCR” value is 35% and the “Overall ORR” value is 0%.
`CN(C)C(=O)c1cc2cnc(Nc3ccc(N4CCNCC4)cn3)nc2n1C1CCCC1` [Ribociclib, ribociclib]: in the data set on advanced solid tumors (setting [5]), the “Overall DCR” value is 32.6% and the “Overall ORR” value is reported as 2.3%.
